Experimental data as given in patent US9000043B2, “Phenoxyethoxy compounds” (Eli Lilly and Company, priority 2013, dated 2015).

Key:
human EP4 [1] = molecular target: T1, human EP4 (Homo sapiens (Human), UniProt P35408); assay: In vitro binding to human EP4 ([3H]-PGE2 displacement, membranes); conditions: HEK293 membranes, [3H]-PGE2, n = 3; read-out: hEP4, Ki
Procedure: (§1) hEP1 and hEP4 membranes are prepared from recombinant HEK293 cells stably expressing the human EP1 (Genbank accession number AY275470) or EP4 (Genbank accession number AY429109) receptors. hEP2 and hEP3 membranes are prepared from HEK293 cells transiently transfected with EP2 (Genbank accession number AY275471) or EP3 (isoform VI: Genbank accession number AY429108) receptor plasmids. Frozen cell pellets are homogenized in homogenization buffer using a Teflon/glass homogenizer. Membrane protein is aliquoted and quick frozen on dry ice prior to storage at −80° C. Homogenization buffer contained 10 mM Tris-HCl, pH 7.4, 250 mM sucrose, 1 mM EDTA, 0.3 mM indomethacin and plus Complete™, with EDTA, obtained from Roche Molecular Biochemicals (Catalog Number 1 697 498).
(§2) Kd values for [3]H-PGE2 binding to each receptor are determined by saturation binding studies or homologous competition. […] Nonspecific binding is calculated by comparing binding in the presence and absence of 2 μM of PGE2. The membranes are harvested by filtration (TomTek harvester), washed 4 times with cold buffer (10 mM MES pH 6.0 with KOH, 10 mM MgCl2), dried in a 60° C. oven, and the radioactivity is quantified as counts per minute (CPM) using a TopCount detector. Percent specific binding is calculated as the percent of the binding in the absence of any inhibitor, corrected for binding in the presence of 2 μM of PGE2. […]
Target sequence in this assay (P35408 whole entry, looked up, canonical isoform): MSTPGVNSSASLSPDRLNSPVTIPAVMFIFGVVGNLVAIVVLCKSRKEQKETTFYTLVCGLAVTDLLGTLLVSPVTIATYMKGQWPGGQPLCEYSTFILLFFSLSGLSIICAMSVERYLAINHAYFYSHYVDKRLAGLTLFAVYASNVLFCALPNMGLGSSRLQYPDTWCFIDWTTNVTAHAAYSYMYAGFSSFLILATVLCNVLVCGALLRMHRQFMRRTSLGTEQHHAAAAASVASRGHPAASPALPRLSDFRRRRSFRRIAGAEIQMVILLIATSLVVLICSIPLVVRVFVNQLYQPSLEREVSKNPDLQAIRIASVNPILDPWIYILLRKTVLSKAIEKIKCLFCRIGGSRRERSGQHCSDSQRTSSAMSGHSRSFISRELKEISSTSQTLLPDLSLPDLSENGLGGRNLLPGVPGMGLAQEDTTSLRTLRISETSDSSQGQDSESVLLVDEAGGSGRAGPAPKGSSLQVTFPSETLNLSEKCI

rat EP4 = rat EP4 (Rattus norvegicus (Rat), UniProt P43114); assay: In vitro rat EP4 functional antagonist activity (PGE2-stimulated cAMP, HTRF); assay type: cell-based; conditions: HEK293 cells expressing rat EP4, PGE2 at EC80, n=1; read-out: IC50 measured at rat EP4 (inhibition of PGE2-stimulated cAMP)
rat EP4, sequence (P43114 whole entry): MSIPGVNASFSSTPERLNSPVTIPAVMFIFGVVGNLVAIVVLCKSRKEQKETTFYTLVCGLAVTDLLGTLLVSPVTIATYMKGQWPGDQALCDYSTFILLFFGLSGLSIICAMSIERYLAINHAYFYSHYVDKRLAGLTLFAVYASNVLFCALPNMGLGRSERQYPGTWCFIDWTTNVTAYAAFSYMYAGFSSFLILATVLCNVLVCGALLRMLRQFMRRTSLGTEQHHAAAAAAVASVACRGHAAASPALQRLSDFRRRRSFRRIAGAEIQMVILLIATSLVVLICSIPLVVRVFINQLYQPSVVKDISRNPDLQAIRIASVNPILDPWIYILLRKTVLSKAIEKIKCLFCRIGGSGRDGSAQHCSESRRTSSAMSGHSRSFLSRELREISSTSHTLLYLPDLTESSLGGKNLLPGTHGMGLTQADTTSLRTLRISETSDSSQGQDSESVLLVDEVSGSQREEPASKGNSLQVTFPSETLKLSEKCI
Procedure: Rat EP4 cDNA (Genebank Accession# NM_03276) is cloned into pcDNA 3.1 vector and subsequently transfected in HEK293 cells for receptor expression. Rat EP4 stable clone is scaled up and then frozen down as cell bank for future compounds screening. To test EP4 antagonist compounds in rEP4 cells, thaw the frozen cells and then resuspend cells in cAMP assay buffer. The cAMP buffer is made by HBSS without Phenol Red (Hyclone, SH30268) supplemented with 20 mM HEPES (Hyclone, SH30237), 0.1% BSA (Gibco, 15260) and 125 μM IBMX (Sigma, 15879). The cells are plated into 96-well half area flat-bottom polystyrene black plates (Costar 3694). Compounds are serial diluted with DMSO to give 10-point concentration response curves. Then diluted compounds are added into cAMP assay buffer which contains PGE2 (Cayman 14010, in a concentration predetermined to produce an EC80) at ratio of DMSO/buffer at 1/100. The cells are treated with compounds in the presence of PGE2 (EC80 concentration) for 30 minutes at room temperature. The cAMP levels generated from the cells are quantified by a cAMP HTRF assay kit (Cisbio 62AM4PEC). The plates are read on an EnVision plate reader using HTRF optimized protocol (PerkinElmer). IC50s are calculated using Graphpad Prism (v. 4) nonlinear regression, sigmoidal dose response curve fitting.

human EP4 [2] = molecular target: T1, human EP4; assay: In vitro human EP4 functional antagonist activity (PGE2-stimulated cAMP, HTRF); assay type: cell-based; conditions: HEK293 cells expressing human EP4, PGE2 at EC80, n=5; read-out: IC50 measured at human EP4 (inhibition of PGE2-stimulated cAMP production)
Procedure: Assays are conducted in recombinant HEK293 cells stably expressing human EP4 receptor. The cell lines are maintained by culturing in DMEM with high glucose and pyridoxine hydrochloride (Invitrogen) supplemented with 10% fetal bovine serum (FBS), 1 mM sodium pyruvate, 10 mM HEPES, 500 μg/mL geneticin and 2 mM L-glutamine. Confluent cultures are grown at 37° C. in an atmosphere containing 5% CO2. Cells are harvested using 2.5% Trypsin-EDTA, suspended in freeze media (FBS with 6% DMSO) at 10^7 cells/mL and aliquots are stored in liquid nitrogen. Just before assay, cells are thawed in DMEM, centrifuged, and resuspended in cAMP buffer.
The inhibition of PGE2-stimulated cAMP production by EP4 antagonists is measured using HTRF (Cisbio catalogue #62AM4PEB). An aliquot equivalent to 4000 cells is incubated with 50 μL cAMP assay buffer containing PGE2 in a concentration predetermined to produce an EC80 (0.188 nM PGE2 from Sigma, catalog # P5640-10 mg) and EP4 antagonists at room temperature for 20 minutes. cAMP assay buffer contains 500 mL HBSS, 0.1% BSA, 20 mM HEPES and 200 μM IBMX (Sigma 15879). […] The HTRF signal is detected using an EnVision® plate reader (Perkin-Elmer) to calculate the ratio of fluorescence at 665 nm to that at 620 nm. […]
Target sequence in this assay (P35408 whole entry, canonical isoform): as the sequence (P35408 whole entry, looked up, canonical isoform) above

human EP3 (isoform VI) = human EP3 (isoform VI) (Homo sapiens (Human), UniProt P43115); assay: In vitro binding to human EP3 ([3H]-PGE2 displacement, membranes); conditions: HEK293 membranes, [3H]-PGE2, n = 1; read-out: hEP3, Ki
human EP3 (isoform VI), sequence (P43115 other isoform, or with tags, fused parts or gaps): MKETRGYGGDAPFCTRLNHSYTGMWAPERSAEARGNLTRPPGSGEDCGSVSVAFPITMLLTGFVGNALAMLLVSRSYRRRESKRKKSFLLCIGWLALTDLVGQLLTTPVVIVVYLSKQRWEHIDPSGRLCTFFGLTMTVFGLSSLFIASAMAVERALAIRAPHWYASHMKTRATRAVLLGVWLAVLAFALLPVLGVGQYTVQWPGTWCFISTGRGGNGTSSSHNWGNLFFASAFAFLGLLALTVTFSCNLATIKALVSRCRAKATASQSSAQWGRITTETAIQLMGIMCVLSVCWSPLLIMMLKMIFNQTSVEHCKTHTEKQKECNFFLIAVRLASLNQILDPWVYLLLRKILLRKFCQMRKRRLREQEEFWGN
Procedure: as §1, §2

human EP1 = human EP1 (Homo sapiens (Human), UniProt P34995); assay: In vitro binding to human EP1 ([3H]-PGE2 displacement, membranes); conditions: HEK293 membranes, [3H]-PGE2, n = 1; read-out: hEP1, Ki
human EP1, sequence (P34995 whole entry): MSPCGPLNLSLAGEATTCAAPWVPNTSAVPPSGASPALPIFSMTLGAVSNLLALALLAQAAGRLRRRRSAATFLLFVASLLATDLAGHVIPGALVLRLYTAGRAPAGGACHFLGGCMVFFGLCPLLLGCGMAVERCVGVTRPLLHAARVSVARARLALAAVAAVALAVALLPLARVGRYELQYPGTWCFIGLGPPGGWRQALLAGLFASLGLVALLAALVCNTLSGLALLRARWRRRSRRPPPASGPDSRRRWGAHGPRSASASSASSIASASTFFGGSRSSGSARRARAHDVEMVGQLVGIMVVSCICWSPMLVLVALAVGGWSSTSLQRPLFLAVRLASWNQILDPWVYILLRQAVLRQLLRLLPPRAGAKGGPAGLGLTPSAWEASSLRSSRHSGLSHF
Procedure: as §1, §2

human EP4 [3] = molecular target: T1, human EP4; assay: In vitro antagonist activity in human whole blood (reversal of PGE2 inhibition of LPS-induced TNFα production); assay type: cell-based; conditions: LPS 10 μg/mL with 10 nM PGE2, geometric mean±SD, n=11, read-out: IC50 in human blood TNFα induction assay
Text: The inhibitory effects of PGE2 on LPS-induced TNFα production from macrophages/monocytes are believed to be mediated by EP4 receptors (See Murase, A., et al., Life Sciences, 82:226-232 (2008)). The ability of the compound of Example 1 to reverse the inhibitory effect of PGE2 on LPS-induced TNFα production in human whole blood is an indicia of functional activity.
Blood is collected from normal volunteer donors into sodium heparin vacutainer tubes. Donors have not taken NSAIDs or celecoxib within 48 hours or glucocorticoids within two weeks prior to the donation. All tubes/donor are pooled into 50 mL Falcon conical centrifuge tubes and 98 μL/well is distributed into 96-well tissue culture plates (Falcon 3072). […] TNFα levels in 2 μL plasma are quantified by a commercially available enzyme immunoassay (R&D Systems DY210), using Immulon 4 HBX plates (Thermo 3855) and 3,3′,5,5′ tetramethylbiphenyl-4,4′-diamine substrate (KPL 50-76-03). The plates are read at A450-A650 on a plate reader (Molecular Devices Versamax) using SOFTmaxPRO (v. 4.3.1) software. IC50s are calculated using Graphpad Prism (v. 4) nonlinear regression, with sigmoidal dose response curve fitting. Results are expressed as the geometric mean±standard deviation; n=number of independent determinations.
Target sequence in this assay (P35408 whole entry, looked up, canonical isoform): as the sequence (P35408 whole entry, looked up, canonical isoform) above

human EP2 = human EP2 (Homo sapiens (Human), UniProt P43116); assay: In vitro binding to human EP2 ([3H]-PGE2 displacement, membranes); conditions: HEK293 membranes, [3H]-PGE2, n = 2; read-out: hEP2, Ki
human EP2, sequence (P43116 whole entry): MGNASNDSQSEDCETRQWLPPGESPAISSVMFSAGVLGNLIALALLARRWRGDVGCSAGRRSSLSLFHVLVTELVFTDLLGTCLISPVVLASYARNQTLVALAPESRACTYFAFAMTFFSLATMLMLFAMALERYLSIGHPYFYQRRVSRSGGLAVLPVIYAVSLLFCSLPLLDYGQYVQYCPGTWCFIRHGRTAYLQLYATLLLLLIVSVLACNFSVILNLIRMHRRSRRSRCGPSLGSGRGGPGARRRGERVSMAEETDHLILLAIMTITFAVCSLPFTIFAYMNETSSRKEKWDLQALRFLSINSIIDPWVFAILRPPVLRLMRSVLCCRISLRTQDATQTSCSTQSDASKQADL
Procedure: as §1, §2

Ki (human EP4 [1]): 0.45 ± 0.26 nM
IC50 (rat EP4): 2 nM
IC50 (human EP4 [2]): 2.2 ± 1.7 nM
Ki (human EP3 (isoform VI)): > 12700 nM
Ki (human EP1): > 17400 nM
IC50 (human EP4 [3]): 20 ± 24 nM
Ki (human EP2): 261 ± 108 nM
SMILES: CC(C)[C@@H](OCCOc1ccccc1)C(=O)N[C@@H](C)c1ccc(C(=O)O)cc1 [Example 1, 4-[(1S)-1-[[(2R)-3-methyl-2-(2-phenoxyethoxy)butanoyl]amino]ethyl]benzoic acid]
